Results published in PubChem BioAssay (NCI).
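Growth conditions: 96-well plates. Treatment: test compound, 48 hours, 5 concentrations. Analysis: linear interpolation between bracketing concentrations; unreached endpoints set to highest concentration. GI50 marks 50% less growth. The concentration for full growth arrest is given as TGI.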

Key:
Assay in all cases: inhibition of tumour cell growth, NCI panel, 48 h
TK-10 renal = test system: TK-10 renal
786-0 renal = test system: 786-0 renal
K-562 leukemia = test system: K-562 leukemia
OVCAR-4 ovarian = test system: OVCAR-4 ovarian
SK-MEL-5 melanoma = test system: SK-MEL-5 melanoma
U251 CNS = test system: U251 CNS
SR leukemia = test system: SR leukemia
CAKI-1 renal = test system: CAKI-1 renal
HOP-62 NSCLC = test system: HOP-62 NSCLC
A549 NSCLC = test system: A549 NSCLC
SF-539 CNS = test system: SF-539 CNS
T-47D breast = test system: T-47D breast
NCI-H460 lung = test system: NCI-H460 lung
NCI-H522 lung = test system: NCI-H522 lung
EKVX NSCLC = test system: EKVX NSCLC
SNB-19 CNS = test system: SNB-19 CNS
MCF7 breast = test system: MCF7 breast
SK-OV-3 ovarian = test system: SK-OV-3 ovarian
RPMI-8226 leukemia = test system: RPMI-8226 leukemia
UACC-62 melanoma = test system: UACC-62 melanoma
M14 melanoma = test system: M14 melanoma
NCI-H23 lung = test system: NCI-H23 lung
HCC-2998 colon = test system: HCC-2998 colon
CCRF-CEM leukemia = test system: CCRF-CEM leukemia
COLO 205 colon = test system: COLO 205 colon
SF-268 CNS = test system: SF-268 CNS
OVCAR-5 ovarian = test system: OVCAR-5 ovarian
RXF 393 renal = test system: RXF 393 renal
NCI-H226 lung = test system: NCI-H226 lung
SF-295 CNS = test system: SF-295 CNS
MDA-MB-231 breast = test system: MDA-MB-231 breast
DU-145 prostate = test system: DU-145 prostate
SN12C renal = test system: SN12C renal
UO-31 renal = test system: UO-31 renal
PC-3 prostate = test system: PC-3 prostate
SNB-75 CNS = test system: SNB-75 CNS
SK-MEL-2 melanoma = test system: SK-MEL-2 melanoma
KM12 colon = test system: KM12 colon
HOP-92 NSCLC = test system: HOP-92 NSCLC
A498 renal = test system: A498 renal
HCT-116 colon = test system: HCT-116 colon
OVCAR-8 ovarian = test system: OVCAR-8 ovarian
OVCAR-3 ovarian = test system: OVCAR-3 ovarian
MOLT-4 leukemia = test system: MOLT-4 leukemia
IGROV1 ovarian = test system: IGROV1 ovarian
SW-620 colon = test system: SW-620 colon
HCT-15 colon = test system: HCT-15 colon
HT29 colon = test system: HT29 colon
BT-549 breast = test system: BT-549 breast
UACC-257 melanoma = test system: UACC-257 melanoma
ACHN renal = test system: ACHN renal
MALME-3M melanoma = test system: MALME-3M melanoma
SK-MEL-28 melanoma = test system: SK-MEL-28 melanoma
HS 578T breast = test system: HS 578T breast
MDA-MB-435 = test system: MDA-MB-435
NCI/ADR-RES ovarian = test system: NCI/ADR-RES ovarian
HL-60(TB) leukemia = test system: HL-60(TB) leukemia

NS(=O)(=O)c1ccc(Nc2nc(Nc3ccccc3)nc(-n3nc(-c4ccccc4)cc3-c3ccccc3)n2)cc1
GI50 (TK-10 renal): 3.87 µM | TGI (TK-10 renal): 8.93 µM | GI50 (786-0 renal): 3.09 µM | TGI (786-0 renal): 10.6 µM | GI50 (K-562 leukemia): 2.62 µM | TGI (K-562 leukemia): 10.8 µM | GI50 (OVCAR-4 ovarian): 2.77 µM | TGI (OVCAR-4 ovarian): 9.32 µM | GI50 (SK-MEL-5 melanoma): 2.33 µM | TGI (SK-MEL-5 melanoma): 5.54 µM | GI50 (U251 CNS): 2.91 µM | TGI (U251 CNS): 10.3 µM | GI50 (SR leukemia): 1.94 µM | TGI (SR leukemia): 5.94 µM | GI50 (CAKI-1 renal): 2.45 µM | TGI (CAKI-1 renal): 9.55 µM | GI50 (HOP-62 NSCLC): 3.29 µM | TGI (HOP-62 NSCLC): 12.4 µM | GI50 (A549 NSCLC): 3.18 µM | TGI (A549 NSCLC): 17.9 µM | GI50 (SF-539 CNS): 2.66 µM | TGI (SF-539 CNS): 10.3 µM | GI50 (T-47D breast): 2.96 µM | TGI (T-47D breast): 13.2 µM | GI50 (NCI-H460 lung): 2.07 µM | TGI (NCI-H460 lung): 4.66 µM | GI50 (NCI-H522 lung): 2.29 µM | TGI (NCI-H522 lung): 7.39 µM | GI50 (EKVX NSCLC): 2.96 µM | TGI (EKVX NSCLC): 17.4 µM | GI50 (SNB-19 CNS): 3.43 µM | TGI (SNB-19 CNS): 20.9 µM | GI50 (MCF7 breast): 2.27 µM | TGI (MCF7 breast): 6.61 µM | GI50 (SK-OV-3 ovarian): 5.37 µM | TGI (SK-OV-3 ovarian): > 100 µM | GI50 (RPMI-8226 leukemia): 2.49 µM | TGI (RPMI-8226 leukemia): 8.69 µM | GI50 (UACC-62 melanoma): 1.81 µM | TGI (UACC-62 melanoma): 3.76 µM | GI50 (M14 melanoma): 3.22 µM | TGI (M14 melanoma): 12.5 µM | GI50 (NCI-H23 lung): 2.84 µM | TGI (NCI-H23 lung): 9.12 µM | GI50 (HCC-2998 colon): 2.98 µM | TGI (HCC-2998 colon): 6.84 µM | GI50 (CCRF-CEM leukemia): 2.94 µM | TGI (CCRF-CEM leukemia): > 100 µM | GI50 (COLO 205 colon): 1.78 µM | TGI (COLO 205 colon): 3.27 µM | GI50 (SF-268 CNS): 3.97 µM | TGI (SF-268 CNS): > 100 µM | GI50 (OVCAR-5 ovarian): 3.34 µM | TGI (OVCAR-5 ovarian): 14.3 µM | GI50 (RXF 393 renal): 1.99 µM | TGI (RXF 393 renal): 5.23 µM | GI50 (NCI-H226 lung): 2.52 µM | TGI (NCI-H226 lung): 11 µM | GI50 (SF-295 CNS): 3.02 µM | TGI (SF-295 CNS): 10.5 µM | GI50 (MDA-MB-231 breast): 1.81 µM | TGI (MDA-MB-231 breast): 3.85 µM | GI50 (DU-145 prostate): 3.16 µM | TGI (DU-145 prostate): 13 µM | GI50 (SN12C renal): 1.47 µM | TGI (SN12C renal): 2.88 µM | GI50 (UO-31 renal): 2.38 µM | TGI (UO-31 renal): 10 µM | GI50 (PC-3 prostate): 2.37 µM | TGI (PC-3 prostate): 7.89 µM | GI50 (SNB-75 CNS): 4.61 µM | TGI (SNB-75 CNS): > 100 µM | GI50 (SK-MEL-2 melanoma): 2.39 µM | TGI (SK-MEL-2 melanoma): 6.95 µM | GI50 (KM12 colon): 2.77 µM | TGI (KM12 colon): 8.2 µM | GI50 (HOP-92 NSCLC): 2.16 µM | TGI (HOP-92 NSCLC): 6.18 µM | GI50 (A498 renal): 3.34 µM | TGI (A498 renal): 8.08 µM | GI50 (HCT-116 colon): 1.74 µM | TGI (HCT-116 colon): 3.39 µM | GI50 (OVCAR-8 ovarian): 3.22 µM | TGI (OVCAR-8 ovarian): 16 µM | GI50 (OVCAR-3 ovarian): 2.24 µM | TGI (OVCAR-3 ovarian): 4.97 µM | GI50 (MOLT-4 leukemia): 1.51 µM | TGI (MOLT-4 leukemia): 6.47 µM | GI50 (IGROV1 ovarian): 2.72 µM | TGI (IGROV1 ovarian): 11.4 µM | GI50 (SW-620 colon): 3.52 µM | TGI (SW-620 colon): 32.1 µM | GI50 (HCT-15 colon): 3.08 µM | TGI (HCT-15 colon): 11.2 µM | GI50 (HT29 colon): 2.38 µM | TGI (HT29 colon): 5.48 µM | GI50 (BT-549 breast): 2.24 µM | TGI (BT-549 breast): 5.54 µM | GI50 (UACC-257 melanoma): 3.26 µM | TGI (UACC-257 melanoma): 23.3 µM | GI50 (ACHN renal): 2.59 µM | TGI (ACHN renal): 9.95 µM | GI50 (MALME-3M melanoma): 2.43 µM | TGI (MALME-3M melanoma): 7.09 µM | GI50 (SK-MEL-28 melanoma): 3.87 µM | TGI (SK-MEL-28 melanoma): 16.9 µM | GI50 (HS 578T breast): 4.31 µM | TGI (HS 578T breast): 62.7 µM | GI50 (MDA-MB-435): 3.32 µM | TGI (MDA-MB-435): 12.9 µM | GI50 (NCI/ADR-RES ovarian): 2.93 µM | TGI (NCI/ADR-RES ovarian): 11 µM | GI50 (HL-60(TB) leukemia): 2.24 µM | TGI (HL-60(TB) leukemia): 8.26 µM
